# According to patent US8748108B2, “Biomarkers for identifying patient classes” (AbbVie Inc., priority 2006, dated 2014):
# Entries after “also recorded” stand apart in the source; their conditions may differ.
# How the values were obtained:
# [1] = tested on: recurrent SCLC; settings: recurrent SCLC patients; cited from earlier work
# [2] = tested on: pro-GRP; test: phase I study, plasma pro-GRP (ARCHITECT ELISA); format: in vivo, human; settings: with increasing dose
# Experimental: (§1) Blood samples for circulating tumor cells (CTCs) were collected at screening, C1D14, C2D14, and at the end of study treatment. Samples for the plasma marker Pro-GRP were collected at screening, C1D14, C2D14, and at the end of study. Samples for serum marker M30 were collected at screening, pre-dose, 6 and 24 hours post-dose on C1D-3 (for 14/21 day dosing) or lead-in day 2 for 21/21 day dosing). Samples were also collected on C1D14; pre-dose and 6 hours post-dose on C2D1; C2D14; end of cycle 4; and every 3rd cycle thereafter and at the final visit for all subjects.
# (§2) The CTC were analyzed via the CellSearch system (Veridex, Raritan, N.J.). […] Pro-GRP was measured using ARCHITECT ELISA kits (Abbott Diagnostics, Abbott Park, Ill.). Serum samples were analyzed for M30 and M65 (Peviva) using previously described assays validated to good clinical laboratory practice (Cummings J, Ward T H, LaCasse E, et al: Validation of pharmacodynamic assays to evaluate the clinical efficacy of an antisense compound (AEG 35156) targeted to the X-linked inhibitor of apoptosis protein XIAP. Br J Cancer 92:532-8, 2005; and Cummings J, Ranson M, Lacasse E, et al: Method validation and preliminary qualification of pharmacodynamic biomarkers employed to evaluate the clinical efficacy of an antisense compound (AEG35156) targeted to the X-linked inhibitor of apoptosis protein XIAP. […]
# [3] = phase 2 study, safety / study discontinuation; format: in vivo, human; settings: phase 2, 39 patients
# Experimental: Safety assessments included history and physical examinations, vital signs, ECOG performance status, AEs, blood chemistry and complete blood counts with differential. Safety assessments were performed at screening, weekly during cycle 1, and at the start of subsequent cycles. Adverse event severity was graded according to the National Cancer Institute Common Terminology Criteria for Adverse Events (NCI CTCAE), version 3.0 (Common Terminology Criteria for Adverse Events. Version 3.0. Available at NCI website for the cancer therapy evaluation program (CTEP). Relationships of adverse events to navitoclax (definitely, probably, possibly, unlikely, or unrelated) were assessed by the Principal Investigator at each site.
# A total of 39 patients participated in the phase 2 study. The majority of patients were of performance status 1. The median number of prior therapeutic regimens was 2 (range 1-6). All patients were started at the planned dose and schedule, including dose escalation to 325 mg in week 2. The primary reasons for study discontinuation included disease progression (N=26, 67%) and AEs (N=11, 28%). The median number of treatment cycles was 2 (range, 1-11) and the median treatment duration was 1.3 months (range, 0.2-7.3).
# [4] = phase I study, pharmacokinetics; format: in vivo; settings: human, plasma; phase 1, patients, oral
# [5] = phase I dose-escalation study, safety; format: in vivo, human
# Text: (§3) This example illustrates a phase I dose-escalation study to evaluate the safety, pharmacokinetics, and preliminary efficacy of navitoclax in subjects with relapsed or refractory SCLC and other solid tumors. This phase I study of navitoclax, a novel inhibitor of Bcl-2 family proteins, was designed to evaluate safety, pharmacokinetics, and preliminary efficacy in subjects with small cell lung cancer (SCLC) or other solid tumors.
# (§4) Subjects enrolled to intermittent dosing cohorts received navitoclax on Days 1-14 followed by 7 days off. Subjects on continuous dosing cohorts received a one week lead-in dose of 150 mg followed by continuous daily administration of navitoclax. Blood samples were collected for pharmacokinetic analyses, biomarker analyses, and platelet monitoring.
# Subjects were evaluated with history, physical exam, vital signs, complete blood count, chemistries, urinalysis and ECOG PS weekly through C2 and on D1 of each subsequent cycle. ECG and 2D-ECHO were obtained on C1D-3, C1D14, C3D1, C3D14, and end of study. Platelet counts were obtained on D-3 through 14 of C1, and weekly through each subsequent cycle. Lymphocyte enumeration was performed at screening, C1D14, at the end of C4, and at the end of every 3rd cycle thereafter. Radiographic tumor assessments were performed at baseline, after the 2nd and 4th cycles and after every 3 cycles thereafter. […]
# [6] = tested on: relapsed or refractory SCLC; test: phase 2 study, efficacy (RECIST, PFS, OS); format: in vivo, human
# Text: Eligible candidates for the phase 2 portion of this study (NCT00445198) were adults with histologically or cytologically confirmed SCLC, extensive stage, with progressive disease after at least one prior chemotherapy regimen (any number of prior therapies were allowed). […] Patients were excluded if they had underlying or predisposing condition of bleeding (history of non-chemotherapy induced thrombocytopenia with bleeding within 1 year, active peptic ulcer or hemorrhagic esophagitis/gastritis, active immune thrombocytopenic purpura, etc.). This study was conducted according to the Declaration of Helsinki and with approval from Institutional Review Boards of all participating study sites. All participants provided written informed consent before participating. The phase 2 component of this clinical trial was an open-label, single arm study of patients with recurrent and progressive SCLC after at least one prior therapy. Based on the dose and schedule determined in phase 1 (Example 3), patients were treated with navitoclax 150 mg daily for 1 week, and 325 mg daily thereafter. Cycle duration was defined as 21 days. Subjects could remain on therapy indefinitely, until disease progression or intolerable toxicity. […] New guidelines to evaluate the response to treatment in solid tumors. European Organization for Research and Treatment of Cancer, National Cancer Institute of the United States, National Cancer Institute of Canada. […] Additional efficacy variables included PFS and OS. All subjects enrolled were included in the analyses. Descriptive statistics were used to summarize demographic variables. Progression free survival and overall survival were computed using Kaplan-Meier methodology and 95% confidence intervals were provided. Progression free survival (PFS) was defined as the number of days from the date the subject started the study drug to the date the subject experienced an event of disease progression, or if progression was not experienced, then the date of death if the death occurred within 42 days (length of time between tumor assessments). Overall survival (OS) was defined as the number of days from the date the subject started the study drug to the date of the subject's death. […] Correlations between median BCL2 copy number and pro-GRP were performed by the Pearson correlation; M30 and CTC change from baseline comparisons among Pro-GRP groups were performed by one-way ANOVA using the JMP 8.0 statistical software. Optimized thresholds for the tumor markers were obtained using BATTing (Bootstrapping and Aggregating Thresholds from Trees) method (See, […]., Bagging Predictors. Machine Learning 26:123-140, 1996, fully incorporated herein by reference). Briefly, BATTing uses a tree-based model for threshold estimation. However, a single tree may be unstable and not robust enough against small perturbations in the distribution of the data. In addition, single tree-based models are known be prone to overfitting (that is, it is over-specified for training data) and have poor prediction power. Those issues are addressed in BATTing by aggregating the thresholds from multiple trees to get a more robust estimate. Each tree is built using a bootstrap random sample drawn from the original population and provides its own cutoff. The final estimate of the threshold is calculated as the median from the distribution of cutoffs generated from the multiple trees. This procedure was implemented using the R statistical software (available online from the R project). Several exploratory correlative biomarkers were included in this study, including both CTC enumeration and plasma protein markers associated with small cell lung cancer. The biomarker analysis included all phase II patients and, to increase the sample size, patients with SCLC and those dosed with >325 mg navitoclax on the phase I portion of this study were also included in the analysis. […]
# [7] = tested on: M30; test: phase I study, serum M30 (caspase-cleaved CK18); format: in vivo, human
# Experimental: as §1, §2
# [8] = tested on: M30; test: phase 2 study, M30 ELISA assay in patient serum; format: in vivo, human
# Experimental: Serum and plasma samples collected at the same intervals were stored at −70° C. or colder until analyzed for quantitative assessment of tumor markers. CYFRA 21-1 and Pro-GRP were measured using the automated [sequence] ELISA kits (Abbott Diagnostics, Abbott Park, Ill.) and NSE was measured in plasma using automated electrochemoluminescent assays on Elecsys 2010 (Roche Diagnostics, Germany). Serum samples were analyzed for M30 and M65 (Peviva AB, Sweden) using previously described assays validated to good clinical laboratory practice (see, Cummings J., et al., Br J Cancer 92:532-8, 2005; and Cummings J., et al., Br J Cancer 95:42-8, 2006).
# This assay measures the release of caspase-cleaved cytokeratin 18 following apoptotic cell death.
# [9] = tested on: relapsed or refractory SCLC and other solid tumors; test: phase I dose-escalation study, tumor response (RECIST); format: in vivo, human
# Text: as §3, §4
# Subjects included histologically documented SCLC or other non-hematologic malignancies, age ≧18, Eastern Cooperative Oncology Group performance status (ECOG PS) of ≦2, measurable disease by Response Evaluation Criteria in Solid Tumors (RECIST 1.0), and had received at least one prior chemotherapy treatment with documented progression. Subjects with brain metastases were included if they had surgery and/or radiation therapy followed by 21 days of stable neurologic function and stable disease by imaging prior to the first dose of study drug. Additional inclusion criteria included adequate bone marrow, renal and hepatic function per local laboratory reference range, non-pregnant status, and a life expectancy of ≧90 days.
# Subjects were evaluated with history, physical exam, vital signs, complete blood count, chemistries, urinalysis and ECOG PS weekly through C2 and on D1 of each subsequent cycle. ECG and 2D-ECHO were obtained on C1D-3, C1D14, C3D1, C3D14, and end of study. Platelet counts were obtained on D-3 through 14 of C1, and weekly through each subsequent cycle. Lymphocyte enumeration was performed at screening, C1D14, at the end of C4, and at the end of every 3rd cycle thereafter. Radiographic tumor assessments were performed at baseline, after the 2nd and 4th cycles and after every 3 cycles thereafter.
# [10] = tested on: circulating tumor cells (CTC); test: phase 2 study, circulating tumor cell number (CellSearch); format: in vivo, human
# Experimental: Blood specimens for analyzing circulating tumor cells (CTC) were collected at screening, on day 14 of cycles 1 and 2, and at final study visit (for US patients only). […] Samples enriched for CTC are removed from the Veridex cartridge after the imaging and enumeration, washed 1× in PBS, pelleted then resuspended in 100 μL PBS and dropped onto a positively charged slide (Biogenex, San Ramon, Calif.) and dried. The slides are then rinsed in H2O prior to imaging using the Carl Zeiss (Germany) or Bioview imaging systems (Tel Aviv, Israel), the CTC are identified and the locations recorded. […] The slides are then returned to the Zeiss or Bioview imaging systems and the previously identified CTC are assessed for DNA copy number.
# To further evaluate this association, we assessed plasma Pro-GRP, and BCL2 copy number by FISH in CTC from patients on this study (n=10).
# [11] = baseline CYFRA 21.1 above 2.3 ng/ml
# [12] = baseline CYFRA 21.1 below 2.3 ng/ml
# [13] = 47 enrolled, 38 evaluable for response
compound,measurement,setting,value
CC[C@@]1(O)C(=O)OCc2c1cc1n(c2=O)Cc2cc3c(CN(C)C)c(O)ccc3nc2-1 [topotecan],response rate,[1],2-6%
"CC1(C)CCC(c2ccc(Cl)cc2)=C(CN2CCN(c3ccc(C(=O)NS(=O)(=O)c4ccc(NC(CCN5CCOCC5)CSc5ccccc5)c(S(=O)(=O)C(F)(F)F)c4)cc3)CC2)C1 (stereo in doubt) [navitoclax, N-(4-(4-(2-(4-chlorophenyl)-5,5-dimethyl-1-cyclohex-1-en-1-yl)methyl)pip-erazin-1-yl)benzoyl)-4-(((1R)-3-(morpholin-4-yl)-1-((phenylsulfanyl)methyl)propyl)amino)-3-((trifluoromethyl)sulfonyl)benzenesulfonamide]",Pro-GRP levels overall,[2],declined or stabilized with increasing navitoclax dose
same,study discontinuation due to AEs,[3],28%
same,half-life,[4],~900 min
same,recommended phase 2 dose,[5]; from exploration of doses and schedules in phase I,325 mg daily
same,toxicities / tolerability,"[5]; phase I, intermittent and continuous dosing cohorts","dose and schedule-dependent thrombocytopenia, diarrhea, nausea, and fatigue; also recorded: safe, well-tolerated, with dose-dependent thrombocytopenia as the major side effect; also recorded: rapid and dose-dependent thrombocytopenia"
same,Median OS Above threshold,[6]; baseline CTC above 12/7.5 ml,67 (17) D
same,Median PFS Above threshold,[6]; baseline CTC above 12/7.5 ml,46 (15) D
same,Median PFS Below threshold,[6]; baseline CTC below 12/7.5 ml,63 (14) D
same,Median OS Above threshold,[6]; [11],67 (19) D
same,Median PFS Above threshold,[6]; [11],44 (19) D
same,Median OS Below threshold,[6]; [12],242 (20) D
same,Median PFS Below threshold,[6]; [12],53 (20) D
same,Median OS Above threshold,[6]; baseline NSE above 15 ng/ml,72 (24) D
same,Median PFS Above threshold,[6]; baseline NSE above 15 ng/ml,44 (24) D
same,Median OS Below threshold,[6]; baseline NSE below 15 ng/ml,242 (15) D
same,Median PFS Below threshold,[6]; baseline NSE below 15 ng/ml,55 (15) D
same,median OS,"[6]; patients above thresholds for both NSE and CYFRA (poor prognosis), n=15",61 days
same,median PFS,"[6]; patients above thresholds for both NSE and CYFRA (poor prognosis), n=16",41 days
same,median OS,"[6]; patients not above both NSE and CYFRA thresholds, n=18",242 days
same,median PFS,"[6]; patients not above both NSE and CYFRA thresholds, n=23",55 days
same,Median progression-free survival (PFS),"[6]; phase 2, 39 patients",1.5 months
same,best response of disease progression (PD),"[6]; phase 2, 39 patients",41%
same,confirmed partial response (PR),"[6]; phase 2, 39 patients",2.6%
same,inevaluable for response,"[6]; phase 2, 39 patients",33.3%
same,median overall survival (OS),"[6]; phase 2, 39 patients",3.2 months
same,stable disease (SD) as best response,"[6]; phase 2, 39 patients",23.1%
same,"Best response PD, N (%)","[6]; phase 2, N = 39",16 (41.0) N (%)
same,"Best response PR, N (%)","[6]; phase 2, N = 39",1 (2.6) N (%)
same,"Best response SD, N (%)","[6]; phase 2, N = 39",9 (23.1) N (%)
same,"Median OS, mo (95% CI)","[6]; phase 2, N = 39","3.2 (2.3, 8.1) mo"
same,"ORR, % (95% CI)","[6]; phase 2, N = 39","2.6 (0.1, 13.5) %"
same,"Median PFS, mo (95% CI)","[6]; phase 2, N = 39, 150 mg daily 1 week then 325 mg daily","1.5 (1.4, 1.7) mo"
same,"Best response inevaluable, N (%)","[6]; phase 2, N = 39, baseline tumor data only",13 (33.3) N (%)
same,time of rise in M30 following the first dose,[7]; in most instances,≤ 6 h
same,circulating M30,"[7]; serum, cycle 1, post first exposure",dose-dependent transient increase in circulating M30
same,M30 concentrations,"[8]; better prognosis patients, high Pro-GRP group (above 600 pg/mL)",205%
same,M30 concentrations,"[8]; better prognosis patients, low Pro-GRP group (below 600 pg/mL)",116%
same,M30 concentrations,"[8]; total population, high Pro-GRP group n=19",212%
same,M30 concentrations,"[8]; total population, low Pro-GRP n=13",109%
same,subjects with partial response,[9]; [13],One
same,subjects with stable disease,[9]; [13],7
same,duration of partial response,"[9]; one subject, remains on study",over 26 months
same,median CTC number,"[10]; better prognosis patients, high pro-GRP group, baseline to day 14",91 % of baseline
same,median CTC number,"[10]; better prognosis patients, low pro-GRP group, baseline to day 14",349 % of baseline
same,median CTC number,"[10]; total population, high pro-GRP group n=12",186 % of baseline
same,median CTC number,"[10]; total population, low pro-GRP group n=8",518 % of baseline
